Experimental data reported in publication PMC7180948, “New Insights into 4-Anilinoquinazolines as Inhibitors of Cardiac Troponin I–Interacting Kinase (TNNi3K)” (Molecules, 2020).

Columns and labels:
Assay in all cases: biochemical
Set-up in all cases: KINOMEscan competition binding panel (Eurofins DiscoverX), single concentration, percent inhibition
Conditions in all cases: read-out: 15 at 1 µM % inhibition
[1] = target: T1, ABL1(E255K)-phosphorylated (Homo sapiens, UniProt P00519, E255K)
T1 construct: phosphorylated
Procedure, shortened: (§1)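 Selectivity profile from a KINOMEscan run against >400 human kinases; test concentration 1 µM.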

AXL = AXL (Homo sapiens, UniProt P30530)
Procedure, shortened: as §1

BMPR1B = BMPR1B (Homo sapiens, UniProt O00238)
Procedure, shortened: as §1

CAMKK1 = CAMKK1 (Homo sapiens, UniProt Q8N5S9)
Procedure, shortened: as §1

CDKL1 = CDKL1 (Homo sapiens, UniProt Q00532)
Procedure, shortened: as §1

EGFR(L858R) = EGFR(L858R) (Homo sapiens, UniProt P00533, L858R)
Procedure, shortened: as §1

FGFR2 = FGFR2 (Homo sapiens, UniProt P21802)
Procedure, shortened: as §1

GSK3A = GSK3A (Homo sapiens, UniProt P49840)
Procedure, shortened: as §1

IKK-beta = target: T2, IKK-beta (Homo sapiens, UniProt O14920)
T2 construct: gene IKBKB
Procedure, shortened: as §1

LCK = LCK (Homo sapiens, UniProt P06239)
Procedure, shortened: as §1

LKB1 = target: T3, LKB1 (Homo sapiens, UniProt Q15831)
T3 construct: gene STK11
Procedure, shortened: as §1

MAP3K3 = MAP3K3 (Homo sapiens, UniProt Q99759)
Procedure, shortened: as §1

MERTK = MERTK (Homo sapiens, UniProt Q12866)
Procedure, shortened: as §1

MKNK1 = MKNK1 (Homo sapiens, UniProt Q9BUB5)
Procedure, shortened: as §1

NEK6 = NEK6 (Homo sapiens, UniProt Q9HC98)
Procedure, shortened: as §1

PAK3 = PAK3 (Homo sapiens, UniProt O75914)
Procedure, shortened: as §1

PIK3C2B = PIK3C2B (Homo sapiens, UniProt O00750)
Procedure, shortened: as §1

PIP5K1C = PIP5K1C (Homo sapiens, UniProt O60331)
Procedure, shortened: as §1

PKN2 = PKN2 (Homo sapiens, UniProt Q16513)
Procedure, shortened: as §1

PRKCI = PRKCI (Homo sapiens, UniProt P41743)
Procedure, shortened: as §1

PRP4 = target: T4, PRP4 (Homo sapiens, UniProt Q13523)
T4 construct: gene PRPF4B
Procedure, shortened: as §1

RET = RET (Homo sapiens, UniProt P07949)
Procedure, shortened: as §1

RIOK1 = RIOK1 (Homo sapiens, UniProt Q9BRS2)
Procedure, shortened: as §1

SYK = SYK (Homo sapiens, UniProt P43405)
Procedure, shortened: as §1

TAK1 = target: T5, TAK1 (Homo sapiens, UniProt O43318)
T5 construct: gene MAP3K7
Procedure, shortened: as §1

Chain of BMPR1B (O00238 whole entry): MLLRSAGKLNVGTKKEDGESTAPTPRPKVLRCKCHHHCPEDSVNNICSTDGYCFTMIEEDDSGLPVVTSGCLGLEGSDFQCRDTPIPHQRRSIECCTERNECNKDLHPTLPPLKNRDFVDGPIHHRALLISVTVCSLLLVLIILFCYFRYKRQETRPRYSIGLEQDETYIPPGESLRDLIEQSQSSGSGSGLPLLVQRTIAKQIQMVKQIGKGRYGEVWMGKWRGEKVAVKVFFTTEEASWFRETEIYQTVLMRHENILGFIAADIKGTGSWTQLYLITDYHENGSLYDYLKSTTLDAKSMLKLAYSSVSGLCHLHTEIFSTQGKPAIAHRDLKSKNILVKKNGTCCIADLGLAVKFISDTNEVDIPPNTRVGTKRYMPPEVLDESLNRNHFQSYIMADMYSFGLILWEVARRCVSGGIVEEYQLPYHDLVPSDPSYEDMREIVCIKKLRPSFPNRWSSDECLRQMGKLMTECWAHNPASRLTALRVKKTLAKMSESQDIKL
Chain of PAK3 (O75914 whole entry): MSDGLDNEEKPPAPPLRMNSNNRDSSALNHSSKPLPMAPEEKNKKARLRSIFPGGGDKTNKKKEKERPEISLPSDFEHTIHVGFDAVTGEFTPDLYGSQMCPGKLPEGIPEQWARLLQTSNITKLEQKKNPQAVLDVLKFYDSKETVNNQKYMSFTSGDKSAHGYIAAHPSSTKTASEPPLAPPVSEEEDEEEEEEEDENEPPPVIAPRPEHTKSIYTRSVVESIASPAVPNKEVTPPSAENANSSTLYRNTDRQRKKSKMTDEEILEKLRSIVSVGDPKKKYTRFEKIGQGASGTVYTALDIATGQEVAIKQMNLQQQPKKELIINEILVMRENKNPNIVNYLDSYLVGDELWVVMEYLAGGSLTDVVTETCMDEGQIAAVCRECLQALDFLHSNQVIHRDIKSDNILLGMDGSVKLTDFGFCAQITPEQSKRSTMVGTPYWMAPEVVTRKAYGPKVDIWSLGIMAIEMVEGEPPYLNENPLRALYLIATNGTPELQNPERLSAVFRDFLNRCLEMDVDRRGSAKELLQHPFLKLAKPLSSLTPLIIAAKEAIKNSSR
Chain of RIOK1 (Q9BRS2 whole entry): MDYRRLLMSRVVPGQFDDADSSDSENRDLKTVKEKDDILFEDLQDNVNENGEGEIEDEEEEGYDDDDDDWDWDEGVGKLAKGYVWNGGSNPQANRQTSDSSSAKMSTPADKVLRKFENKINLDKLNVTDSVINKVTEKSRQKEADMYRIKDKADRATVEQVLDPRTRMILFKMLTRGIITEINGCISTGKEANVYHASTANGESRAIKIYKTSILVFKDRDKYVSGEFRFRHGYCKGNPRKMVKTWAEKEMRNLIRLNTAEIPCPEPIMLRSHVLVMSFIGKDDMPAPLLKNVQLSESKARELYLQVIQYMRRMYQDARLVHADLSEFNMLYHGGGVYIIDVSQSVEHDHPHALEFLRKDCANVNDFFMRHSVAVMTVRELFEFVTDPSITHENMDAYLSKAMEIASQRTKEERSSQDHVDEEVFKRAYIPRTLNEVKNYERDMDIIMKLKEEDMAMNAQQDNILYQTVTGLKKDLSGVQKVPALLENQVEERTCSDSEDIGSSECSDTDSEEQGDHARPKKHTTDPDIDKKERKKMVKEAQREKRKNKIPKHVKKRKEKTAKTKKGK
Chain of PRKCI (P41743 whole entry): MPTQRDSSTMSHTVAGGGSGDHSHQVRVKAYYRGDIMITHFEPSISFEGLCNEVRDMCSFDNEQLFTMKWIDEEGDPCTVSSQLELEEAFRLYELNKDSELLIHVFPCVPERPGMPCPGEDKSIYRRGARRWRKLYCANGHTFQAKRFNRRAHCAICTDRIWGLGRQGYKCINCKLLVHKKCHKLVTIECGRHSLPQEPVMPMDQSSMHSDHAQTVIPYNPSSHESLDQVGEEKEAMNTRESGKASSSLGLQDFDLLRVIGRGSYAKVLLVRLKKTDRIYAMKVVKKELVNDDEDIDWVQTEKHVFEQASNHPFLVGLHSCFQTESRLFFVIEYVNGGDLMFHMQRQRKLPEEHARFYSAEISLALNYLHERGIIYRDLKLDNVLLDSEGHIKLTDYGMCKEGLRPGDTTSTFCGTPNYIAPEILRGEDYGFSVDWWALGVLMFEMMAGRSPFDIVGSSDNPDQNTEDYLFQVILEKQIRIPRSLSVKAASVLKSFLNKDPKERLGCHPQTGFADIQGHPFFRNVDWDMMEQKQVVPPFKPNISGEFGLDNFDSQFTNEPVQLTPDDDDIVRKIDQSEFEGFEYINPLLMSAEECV
Chain of MAP3K3 (Q99759 whole entry): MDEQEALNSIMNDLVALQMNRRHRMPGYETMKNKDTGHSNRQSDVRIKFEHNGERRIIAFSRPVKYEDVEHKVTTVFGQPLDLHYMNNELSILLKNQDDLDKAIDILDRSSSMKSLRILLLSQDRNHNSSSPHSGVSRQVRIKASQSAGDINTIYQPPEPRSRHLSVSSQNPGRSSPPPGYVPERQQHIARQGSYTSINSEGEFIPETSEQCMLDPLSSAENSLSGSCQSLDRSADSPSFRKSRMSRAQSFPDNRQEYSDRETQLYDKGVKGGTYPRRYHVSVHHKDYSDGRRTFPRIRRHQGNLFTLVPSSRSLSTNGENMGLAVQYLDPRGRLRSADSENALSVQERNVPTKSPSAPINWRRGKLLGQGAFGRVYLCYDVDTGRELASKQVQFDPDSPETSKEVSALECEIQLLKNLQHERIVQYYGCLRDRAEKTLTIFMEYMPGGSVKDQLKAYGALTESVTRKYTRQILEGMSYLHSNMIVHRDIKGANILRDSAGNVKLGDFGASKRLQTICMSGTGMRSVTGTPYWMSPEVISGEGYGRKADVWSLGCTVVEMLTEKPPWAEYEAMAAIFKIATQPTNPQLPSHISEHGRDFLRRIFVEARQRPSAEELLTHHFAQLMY
Chain of PIP5K1C (O60331 whole entry): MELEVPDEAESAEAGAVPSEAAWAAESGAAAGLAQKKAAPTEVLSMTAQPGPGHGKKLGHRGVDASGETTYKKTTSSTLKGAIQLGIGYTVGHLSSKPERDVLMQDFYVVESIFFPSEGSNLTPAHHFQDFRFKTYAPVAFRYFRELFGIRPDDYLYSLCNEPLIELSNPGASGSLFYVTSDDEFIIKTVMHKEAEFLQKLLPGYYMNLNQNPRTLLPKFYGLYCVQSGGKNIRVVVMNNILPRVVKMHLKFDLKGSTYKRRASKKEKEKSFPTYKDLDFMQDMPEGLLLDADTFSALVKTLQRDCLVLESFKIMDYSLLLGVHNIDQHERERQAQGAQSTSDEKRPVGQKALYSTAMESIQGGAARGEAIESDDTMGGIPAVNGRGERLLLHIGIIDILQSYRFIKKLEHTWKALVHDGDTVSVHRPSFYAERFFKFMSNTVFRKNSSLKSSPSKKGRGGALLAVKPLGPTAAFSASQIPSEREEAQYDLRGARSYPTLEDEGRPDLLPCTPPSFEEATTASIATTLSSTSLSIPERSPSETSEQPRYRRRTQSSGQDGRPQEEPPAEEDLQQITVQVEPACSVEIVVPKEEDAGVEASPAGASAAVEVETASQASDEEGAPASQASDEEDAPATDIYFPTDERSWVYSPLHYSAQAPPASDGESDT
Chain of CDKL1 (Q00532 whole entry): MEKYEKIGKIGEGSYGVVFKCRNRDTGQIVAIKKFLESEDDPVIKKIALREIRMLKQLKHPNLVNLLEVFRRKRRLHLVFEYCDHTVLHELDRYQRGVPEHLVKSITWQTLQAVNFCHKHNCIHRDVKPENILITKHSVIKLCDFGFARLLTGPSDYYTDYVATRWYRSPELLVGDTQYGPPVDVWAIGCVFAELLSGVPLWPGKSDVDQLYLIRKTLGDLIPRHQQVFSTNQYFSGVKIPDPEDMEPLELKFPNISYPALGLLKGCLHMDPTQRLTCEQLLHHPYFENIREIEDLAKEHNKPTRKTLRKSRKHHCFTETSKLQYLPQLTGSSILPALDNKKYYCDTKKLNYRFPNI
Chain of LCK (P06239 whole entry): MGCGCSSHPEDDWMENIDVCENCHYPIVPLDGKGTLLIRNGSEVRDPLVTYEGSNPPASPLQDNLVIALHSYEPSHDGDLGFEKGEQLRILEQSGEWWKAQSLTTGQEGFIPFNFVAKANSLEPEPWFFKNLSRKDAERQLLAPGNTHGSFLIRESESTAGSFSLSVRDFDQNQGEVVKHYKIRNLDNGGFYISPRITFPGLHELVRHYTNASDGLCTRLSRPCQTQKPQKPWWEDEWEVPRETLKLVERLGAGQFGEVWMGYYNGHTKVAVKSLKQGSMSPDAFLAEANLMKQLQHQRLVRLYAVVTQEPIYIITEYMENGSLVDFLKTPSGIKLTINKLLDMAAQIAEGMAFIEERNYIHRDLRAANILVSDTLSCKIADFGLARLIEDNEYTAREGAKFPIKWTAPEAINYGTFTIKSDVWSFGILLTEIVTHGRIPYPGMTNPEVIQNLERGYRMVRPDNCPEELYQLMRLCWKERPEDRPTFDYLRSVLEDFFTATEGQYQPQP
Chain of GSK3A (P49840 whole entry): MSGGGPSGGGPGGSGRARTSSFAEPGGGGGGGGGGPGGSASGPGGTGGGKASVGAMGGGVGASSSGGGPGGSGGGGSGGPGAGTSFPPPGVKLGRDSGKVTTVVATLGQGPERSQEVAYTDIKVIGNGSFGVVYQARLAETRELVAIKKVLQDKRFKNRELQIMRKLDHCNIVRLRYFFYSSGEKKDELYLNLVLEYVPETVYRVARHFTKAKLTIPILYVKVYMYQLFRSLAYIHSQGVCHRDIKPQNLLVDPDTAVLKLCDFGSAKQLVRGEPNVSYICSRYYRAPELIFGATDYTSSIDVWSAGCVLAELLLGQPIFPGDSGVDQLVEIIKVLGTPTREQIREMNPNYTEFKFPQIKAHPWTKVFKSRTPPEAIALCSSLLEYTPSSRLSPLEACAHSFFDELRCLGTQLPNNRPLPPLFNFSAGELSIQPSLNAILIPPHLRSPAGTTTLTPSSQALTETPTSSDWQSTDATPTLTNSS

Work on `CNS(=O)(=O)c1ccc(N(C)C)c(Nc2nc(C)nc3cc(OC)c(OC)cc23)c1` [compound 15, 3-((6,7-dimethoxy-2-methylquinazolin-4-yl)amino)-4-(dimethylamino)-N-methylbenzenesulfonamide] yielded an inhibition at 1 µM [1] of 4%, an inhibition at 1 µM (AXL) of 9% and an inhibition at 1 µM (BMPR1B) of 31%. The inhibition at 1 µM (CAMKK1) was 2%, the inhibition at 1 µM (CDKL1) was 2% and the inhibition at 1 µM (EGFR(L858R)) was 4%. It also gave an inhibition at 1 µM (FGFR2) of 0%, an inhibition at 1 µM (GSK3A) of 0% and an inhibition at 1 µM (IKK-beta) of 37%. For the same compound, the inhibition at 1 µM (LCK) was 0%, the inhibition at 1 µM (LKB1) was 0% and the inhibition at 1 µM (MAP3K3) was 44%. For the same compound, the inhibition at 1 µM (MERTK) was 0%, the inhibition at 1 µM (MKNK1) was 4% and the inhibition at 1 µM (NEK6) was 0%. For the same compound, the inhibition at 1 µM (PAK3) was 4%, the inhibition at 1 µM (PIK3C2B) was 71% and the inhibition at 1 µM (PIP5K1C) was 18%. The inhibition at 1 µM (PKN2) was 0%, the inhibition at 1 µM (PRKCI) was 25% and the inhibition at 1 µM (PRP4) was 52%. The inhibition at 1 µM (RET) was 0%, the inhibition at 1 µM (RIOK1) was 0% and the inhibition at 1 µM (SYK) was 0%. For the same compound, the inhibition at 1 µM (TAK1) was 24%.
